Patent publication US8598217B2, “Imidazole derivatives and their use as modulators of cyclin dependent kinases” (Astex Therapeutics Ltd., priority 2009, dated 2013)
pIC50: −log10 of the molar value.

Target: CDK4/cyclin D1 (Homo sapiens (Human), UniProt P11802)
Experiment: CDK4/cyclin D1 enzymatic activity assay (Protocol A, Lance TR-FRET)
Format: biochemical
Conditions: CDK4/cyclin D1, 175 nM pRb152, 3 μM ATP, 60 min, room temperature; read-out: IC50 against CDK4 kinase
Description: A 384-well microtiter Lance TR-FRET (time-resolved-fluorescence energy transfer) endpoint assay was used for CDK4/cyclin D1 kinase activity measurements. The same assay was used for IC50 determination of small molecule inhibitors. In general, the kinase reactions were carried out in 30 μL volumes in the reaction solution containing the following: 2 μL compound (in 20% DMSO), 18 uL CDK4/cyclin D1 in Assay Buffer (50 mM HEPES, pH 7.5, 5 mM MgCl2, 2 mM MnCl2, 1 mM DTT, 0.05% BSA, 0.02% Tween-20), 10 μL of the mixture of pRb152 and ATP. The final reaction mixture contains compound (inhibitor) with the concentration varying from […], 2% DMSO, 0.3 nM CDK4/cyclin D1, 175 nM pRb152, and 3 μM ATP (Amersham Pharmacia, Cat. No. 27-2056-01). All reactions were run at room temperature in 384-well white flat-bottom OptiPlates (Perkin Elmer, Cat. No. 6007290) for 60 min then were quenched by the addition of 10 μL of 120 mM EDTA. The signals were captured by the addition of 40 μL of the Detection Solution containing the following: Detection Buffer (50 mM HEPES, pH 7.5, 30 mM EDTA, 0.1% Triton x-100, 0.05% BSA), 70 ng/mL anti-phospho-pRb(S780) (Cell Signaling Technology, Cat. No. 9307S), 1 nM Lance Eu-W1024-Rabbit anti-IgG (Perkin Elmer, Cat. No. AD0082), and 20 nM SureLight™ Allophycocyanin-Streptavidin (Perkin Elmer, Cat. No. CR130-100). The resulted solutions were incubated at room temperature for 2 hours before read on the Evision Multilabel Reader (Perkin Elmer, Envision 2102-0010). Note: IC50<0.005 nM or IC50>10 μM indicates the true IC50 is out of detection range.
CDK4/cyclin D1 recombinant protein used in the enzymatic activity assay was prepared by coexpressing pDEST10-CDK4 (N-terminal His6) and pFastBacDual-GST-hCyclinD1 viruses in Sf21 cells. The overexpressed protein was purified by Ni-NTA affinity pull down to >80% pure by Sizing HPLC.

Sequence of CDK4/cyclin D1 (P11802 whole entry): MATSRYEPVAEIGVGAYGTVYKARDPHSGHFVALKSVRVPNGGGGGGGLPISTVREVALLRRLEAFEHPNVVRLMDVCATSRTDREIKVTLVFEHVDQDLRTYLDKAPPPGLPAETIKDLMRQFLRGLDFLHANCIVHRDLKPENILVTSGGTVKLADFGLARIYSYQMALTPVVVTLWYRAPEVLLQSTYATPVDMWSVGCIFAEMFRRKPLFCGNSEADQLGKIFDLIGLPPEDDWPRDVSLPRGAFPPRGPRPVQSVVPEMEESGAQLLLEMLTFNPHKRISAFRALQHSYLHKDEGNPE
Sequence of CDK4/cyclin D1 (P24385 whole entry partner): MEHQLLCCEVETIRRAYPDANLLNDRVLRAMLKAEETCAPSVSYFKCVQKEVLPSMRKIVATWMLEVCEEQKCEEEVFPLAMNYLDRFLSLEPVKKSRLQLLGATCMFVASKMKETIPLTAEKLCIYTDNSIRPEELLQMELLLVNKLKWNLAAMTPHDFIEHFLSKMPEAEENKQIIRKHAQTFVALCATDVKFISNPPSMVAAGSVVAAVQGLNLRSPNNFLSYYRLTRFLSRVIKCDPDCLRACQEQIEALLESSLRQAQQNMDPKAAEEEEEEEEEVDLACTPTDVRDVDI

Row | SMILES | pIC50
1 | CN(C)Cc1ccc2nc(C(=O)c3ccnc(-c4cncc5ccccc45)c3)[nH]c2c1 [Example 84, (6-Dimethylaminomethyl-1H-benzoimidazol-2-yl)-(2-isoquinolin-4-yl-pyridin-4-yl)-methanone] | 7.24
2 | CN1CCN(Cc2ccc3[nH]c(C(=O)c4ccnc(-c5cncc6ccccc56)c4)nc3c2)CC1 [Example 86, (2-Isoquinolin-4-yl-pyridin-4-yl)-[5-(4-methyl-piperazin-1-ylmethyl)-1H-benzoimidazol-2-yl]-methanone] | 7.57
3 | CN(C)C1CCN(c2ccc3[nH]c(C(=O)c4ccnc(-c5cncc6ccccc56)c4)nc3c2)CC1 [Example 89, [5-(4-Dimethylamino-piperidin-1-yl)-1H-benzoimidazol-2-yl]-(2-isoquinolin-4-yl-pyridin-4-yl)-methanone] | 8.40
4 | O=C(c1ccnc(-c2cncc3ccccc23)c1)c1nc2cc(OCC(O)CO)ccc2[nH]1 (stereo not drawn) [Example 98, [5-(2,3-Dihydroxy-propoxy)-1H-benzoimidazol-2-yl]-(2-isoquinolin-4-yl-pyridin-4-yl)-methanone] | 7.48
5 | CN1CCC(NC(=O)c2ccc3nc(C(=O)c4ccnc(-c5cncc6ccccc56)c4)[nH]c3c2)CC1 [Example 99, 2-(2-Isoquinolin-4-yl-pyridine-4-carbonyl)-3H-benzoimidazole-5-carboxylic acid (1-methyl-piperidin-4-yl)-amide] | 7.59
6 | COc1ccc(F)c(F)c1-c1cc(C(=O)c2nc3cc(N4CCC(N(C)C)CC4)ccc3[nH]2)ccn1 [Example 103, [2-(2,3-Difluoro-6-methoxy-phenyl)-pyridin-4-yl]-[5-(4-dimethylamino-piperidin-1-yl)-1H-benzoimidazol-2-yl]-methanone] | 7.22
7 | CN(C)C1CCN(c2ccc3nc(C(=O)c4ccc(C#N)c(-c5cncc6[nH]ccc56)c4)[nH]c3n2)CC1 [Example 140, 4-[5-(4-Dimethylamino-piperidin-1-yl)-3H-imidazo[4,5-b]pyridine-2-carbonyl]-2-(1H-pyrrolo[2,3-c]pyridin-4-yl)-benzonitrile] | 8.40
8 | CN(C)C1CCN(c2ccc3nc(C(=O)c4ccc(C#N)c(-c5cncc6ccccc56)c4)[nH]c3n2)CC1 [Example 165, 4-[5-(4-Dimethylamino-piperidin-1-yl)-3H-imidazo[4,5-b]pyridine-2-carbonyl]-2-isoquinolin-4-yl-benzonitrile] | 8.52

Further lines, results first:

Row | pIC50 | SMILES
9 | 7.92 | CN(C)C1CCN(c2ccc3nc(C(=O)c4ccnc(-c5cncc6ccccc56)c4)[nH]c3n2)CC1 [Example 135, [5-(4-Dimethylamino-piperidin-1-yl)-3H-imidazo[4,5-b]pyridin-2-yl]-(2-isoquinolin-4-yl-pyridin-4-yl)-methanone]
10 | 7.17 | COc1ccc(F)c(F)c1-c1cc(C(=O)c2nc3ccc(N4CCC(N(C)C)CC4)nc3[nH]2)ccn1 [Example 148, [5-(4-dimethylamino-piperidin-1-yl)-3H-imidazo[4,5-b]pyridin-2-yl]-[2-(2,3-difloro-6-methoxy-phenyl)-pyridin-4-yl]-methanone]
11 | 7.85 | O=C(c1ccnc(-c2cncc3ccccc23)c1)c1nc2ccc(N3CCCNCC3)nc2[nH]1 [Example 163, (5-[1,4]Diazepan-1-yl-3H-imidazo[4,5-b]pyridine-2-yl)-(2-isoquinolin-4-yl-pyridin-4-yl)-methanone]
12 | 7.62 | O=C(c1ccnc(-c2cncc3ccccc23)c1)c1nc2ccc(N3CCNCC3)nc2[nH]1 [Example 164]
13 | 8.10 | N#Cc1ccc(C(=O)c2nc3ccc(N4CCNCC4)nc3[nH]2)cc1-c1cncc2ccccc12 [Example 166, 2-Isoquinolin-4-yl-4-(5-piperazin-1-yl-3H-imidazo[4,5-b]pyridine-2-carbonyl)-benzonitrile]
14 | 6.71 | Cc1n[nH]c(C)c1-c1cc(C(=O)c2nc3ccc(N4CCC(N(C)C)CC4)nc3[nH]2)ccn1 [Example 167, [5-(4-Dimethylamino-piperidin-1-yl)-3H-imidazo[4,5-b]pyridine-2-yl]-[2-(3,5-dimethyl-1H-pyrazol-4-yl)-pyridin-4-yl]-methanone]
15 | 6.59 | Cc1n[nH]c(C)c1-c1cc(C(=O)c2nc3ccc(N4CCNCC4)nc3[nH]2)ccn1 [Example 169, [2-(3,5-Dimethyl-1H-pyrazol-4-yl)-pyridin-4-yl]-(5-piperazin-1-yl-3H-imidazo[4,5-b]pyridine-2-yl)-methanone]
16 | 6.26 | Cc1n[nH]c(C)c1-c1cc(C(=O)c2nc3ccc(N4CCCNCC4)nc3[nH]2)ccn1 [Example 170, (5-[1,4]Diazepan-1-yl-3H-imidazo[4,5-b]-pyridin-2-yl)-[2-(3,5-dimethyl-1H-pyrazol-4-yl)-pyridin-4-yl]-methanone]

Same assay, conditions: CDK4/cyclin D1, 175 nM pRb152, 3 μM ATP; bound stated; read-out: IC50 values against CDK4

Row | SMILES | pIC50
17 | COc1cccc(F)c1-c1cc(C(=O)c2nc3ccc(N4CCN(C)CC4)cc3[nH]2)ccn1 [Example 49, [2-(2-Fluoro-6-methoxy-phenyl)-pyridin-4-yl]-[6-(4-methyl-piperazin-1-yl)-1H-benzoimidazol-2-yl]-methanone] | > 5.00
18 | COc1cccc(F)c1-c1cc(C(=O)c2nc3ccc(N4CCC(N(C)C)CC4)cc3[nH]2)ccn1 [Example 50, [6-(4-Dimethylamino-piperidin-1-yl)-1H-benzoimidazol-2-yl]-[2-(2-fluoro-6-methoxy-phenyl)-pyridin-4-yl]-methanone] | > 5.00
19 | COc1ccc(F)c(F)c1-c1cc(C(=O)c2ncc[nH]2)ccn1 [Example 66, [2-(2,3-Difluoro-6-methoxy-phenyl)-pyridin-4-yl]-(1H-imidazol-2-yl)-methanone] | > 5.00
20 | COc1cccc(F)c1-c1cc(C(=O)c2nc3cc(CN4CCOCC4)ccc3[nH]2)ccn1 [Example 73, [2-(2-Fluoro-6-methoxy-phenyl)-pyridin-4-yl]-(5-morpholin-4-ylmethyl-1H-benzoimidazol-2-yl)-methanone] | > 5.00
21 | CN(C)Cc1cccc2[nH]c(C(=O)c3ccnc(-c4cncc5ccccc45)c3)nc12 [Example 79A, (4-Dimethylaminomethyl-1H-benzoimidazol-2-yl)-(2-isoquinolin-4-yl-pyridin-4-yl)-methanone] | > 5.00
22 | COc1ccc(F)c(F)c1-c1cc(C(=O)c2nc3c(CN(C)C)cccc3[nH]2)ccn1 [Example 79B, [2-(2,3-Difluoro-6-methoxy-phenyl)-pyridin-4-yl]-(4-dimethylaminomethyl-1H-benzoimidazol-2-yl)-methanone] | > 5.00
23 | O=C(c1ccnc(-c2cncc3ccccc23)c1)c1nc2cc(OCC(O)CO)ccc2[nH]1 (stereo not drawn) [Example 98, [5-(2,3-Dihydroxy-propoxy)-1H-benzoimidazol-2-yl]-(2-isoquinolin-4-yl-pyridin-4-yl)-methanone] | > 5.00
24 | CN1CCC(NC(=O)c2ccc3nc(C(=O)c4ccnc(-c5cncc6ccccc56)c4)[nH]c3c2)CC1 [Example 99, 2-(2-Isoquinolin-4-yl-pyridine-4-carbonyl)-3H-benzoimidazole-5-carboxylic acid (1-methyl-piperidin-4-yl)-amide] | > 5.00
25 | CCNCc1cncc(-c2cc(C(=O)c3nc4cc(OC)c(OC)cc4[nH]3)ccc2C#N)c1 [Example 101, 4-(5,6-Dimethoxy-1H-benzoimidazole-2-carbonyl)-2-(5-ethylaminomethyl-pyridin-3-yl)-benzonitrile] | > 5.00
26 | COc1ccc(F)c(F)c1-c1cc(C(=O)c2nc3cc(N4CCC(N(C)C)CC4)ccc3[nH]2)ccn1 [Example 103, [2-(2,3-Difluoro-6-methoxy-phenyl)-pyridin-4-yl]-[5-(4-dimethylamino-piperidin-1-yl)-1H-benzoimidazol-2-yl]-methanone] | > 5.00
27 | Cc1cc(F)ncc1-c1cc(C(=O)c2nc3ccc(N4CCC(N(C)C)CC4)cc3[nH]2)ccn1 [Example 119, [6-(4-Dimethylamino-piperidin-1-yl)-1H-benzoimidazol-2-yl]-(6′-fluoro-4′-methyl-[2,3′]bipyridinyl-4-yl)-methanone] | > 5.00
28 | CNS(=O)(=O)c1ccccc1-c1cc(C(=O)c2nc3ccc(N4CCC(N(C)C)CC4)cc3[nH]2)ccn1 [Example 120, 2-{4-[6-(4-Dimethylamino-piperidin-1-yl)-1H-benzoimidazole-2-carbonyl]-pyridin-2-yl}-N-methyl-benzenesulfonamide] | > 5.00
29 | CN(C)C1CCN(c2ncc3nc(C(=O)c4ccnc(-c5cncc6ccccc56)c4)[nH]c3n2)CC1 [Example 133, [2-(4-Dimethylamino-piperidin-1-yl)-9H-purin-8-yl]-(2-isoquinolin-4-yl-pyridin-4-yl)-methanone] | > 5.00
30 | COc1ccc(F)c(F)c1-c1cncc(C(=O)c2nc3cc(CN(C)C)ccc3[nH]2)c1 [Example 159, [5-(2,3-Difluoro-6-methoxy-phenyl)-pyridin-3-yl]-(5-dimethylaminomethyl-1H-benzoimidazol-2-yl)-methanone] | > 5.00
31 | Cc1nn(C)c(C)c1-c1cc(C(=O)c2nc3ccc(OC4CCNC4)nc3[nH]2)ccc1C#N (stereo not drawn) [Example 160, 4-[5-(Pyrrolidin-3-yloxy)-3H-imidazo[4,5-b]pyridine-2-carbonyl]-2-(1,3,5-trimethyl-1H-pyrazol-4-yl)-benzonitrile] | > 5.00

Continued, values first:

Row | pIC50 | SMILES
32 | > 5.00 | Cc1n[nH]c(C)c1-c1cc(C(=O)c2nc3ccc(N4CCC(N(C)C)CC4)cc3[nH]2)ccn1 [Example 129, [6-(4-Dimethylamino-piperidin-1-yl)-1H-benzoimidazol-2-yl]-[2-(3,5-dimethyl-1H-pyrazol-4-yl)-pyridin-4-yl]-methanone]
33 | > 5.00 | CN(C)C1CCN(c2ccc3nc(C(=O)c4ccnc(-c5cncc6ccccc56)c4)[nH]c3n2)CC1 [Example 135, [5-(4-Dimethylamino-piperidin-1-yl)-3H-imidazo[4,5-b]pyridin-2-yl]-(2-isoquinolin-4-yl-pyridin-4-yl)-methanone]
